Measured values reported in the NIST ThermoML archive (doi:10.1021/je100078w).
Numbers after ± are expanded uncertainties.

Experiments:
[1] = 101.33 kPa, Liquid
[2] = wn = mass fraction of the nth substance listed; conditions: 101 kPa, Liquid

C[NH+](CCO)CCO.F[B-](F)(F)F
mass density ([1]; 303.15 K): 1425.56 ± 3.2 kg/m3
viscosity ([1]; 303.15 K): 208.8 ± 16 mPa·s
mass density ([1]; 313.15 K): 1418.1 ± 3.2 kg/m3
viscosity ([1]; 313.15 K): 117.7 ± 5.6 mPa·s
mass density ([1]; 323.15 K): 1410.63 ± 3.2 kg/m3
viscosity ([1]; 323.15 K): 71.79 ± 1.6 mPa·s
mass density ([1]; 333.15 K): 1403.2 ± 3.1 kg/m3
viscosity ([1]; 333.15 K): 46.85 ± 0.76 mPa·s
mass density ([1]; 343.15 K): 1395.85 ± 3.1 kg/m3
viscosity ([1]; 343.15 K): 32.35 ± 0.53 mPa·s

CCCCn1cc[n+](C)c1.F[B-](F)(F)F [1-butyl-3-methylimidazolium tetrafluoroborate]
mass density ([1]; 303.15 K): 1195.7 ± 1.2 kg/m3
viscosity ([1]; 303.15 K): 68.9 ± 1.3 mPa·s
mass density ([1]; 313.15 K): 1188.62 ± 1.1 kg/m3
viscosity ([1]; 313.15 K): 44.73 ± 0.61 mPa·s
mass density ([1]; 323.15 K): 1181.59 ± 1.1 kg/m3
viscosity ([1]; 323.15 K): 30.81 ± 0.43 mPa·s
mass density ([1]; 333.15 K): 1174.6 ± 1.1 kg/m3
viscosity ([1]; 333.15 K): 22.28 ± 0.31 mPa·s
mass density ([1]; 343.15 K): 1167.67 ± 1.1 kg/m3
viscosity ([1]; 343.15 K): 16.75 ± 0.24 mPa·s

C[NH+](CCO)CCO.[Cl-] [2-hydroxy-N-(2-hydroxyethyl)-N-methylethanaminium chloride]
mass density ([1]; 303.15 K): 1180.42 ± 1.9 kg/m3
viscosity ([1]; 303.15 K): 512.1 ± 64 mPa·s
mass density ([1]; 313.15 K): 1174.71 ± 1.9 kg/m3
viscosity ([1]; 313.15 K): 278.2 ± 26 mPa·s
mass density ([1]; 323.15 K): 1169.24 ± 1.9 kg/m3
viscosity ([1]; 323.15 K): 164.2 ± 11 mPa·s
mass density ([1]; 333.15 K): 1163.75 ± 1.9 kg/m3
viscosity ([1]; 333.15 K): 104.1 ± 4.3 mPa·s
mass density ([1]; 343.15 K): 1158.29 ± 1.8 kg/m3
viscosity ([1]; 343.15 K): 70.45 ± 1.5 mPa·s

C[NH+](CCO)CCO.C[NH+](CCO)CCO.C[NH+](CCO)CCO.O=P([O-])([O-])[O-] [2-hydroxy-N-(2-hydroxyethyl)-N-methylethanaminium phosphate] + O
viscosity ([2]; 303.15 K, w1 = 0.3001): 2.63 ± 0.068 mPa·s
mass density ([2]; 303.15 K, w1 = 0.3007): 1075.32 ± 1.8 kg/m3
viscosity ([2]; 313.15 K, w1 = 0.3001): 2.125 ± 0.059 mPa·s
mass density ([2]; 313.15 K, w1 = 0.3007): 1070.31 ± 1.8 kg/m3
viscosity ([2]; 323.15 K, w1 = 0.3001): 1.805 ± 0.052 mPa·s
mass density ([2]; 323.15 K, w1 = 0.3007): 1063.44 ± 1.8 kg/m3
viscosity ([2]; 333.15 K, w1 = 0.3001): 1.594 ± 0.048 mPa·s
mass density ([2]; 333.15 K, w1 = 0.3007): 1055.39 ± 1.7 kg/m3
viscosity ([2]; 343.15 K, w1 = 0.3001): 1.455 ± 0.046 mPa·s
mass density ([2]; 343.15 K, w1 = 0.3007): 1045.38 ± 1.6 kg/m3

CN(CCO)CCO [N-methyldiethanolamine] + O
mass density ([2]; 303.15 K, w1 = 0.3002): 1022.9 ± 0.93 kg/m3
viscosity ([2]; 303.15 K, w1 = 0.3002): 2.612 ± 0.066 mPa·s
mass density ([2]; 313.15 K, w1 = 0.3002): 1018 ± 0.91 kg/m3
viscosity ([2]; 313.15 K, w1 = 0.3002): 1.937 ± 0.054 mPa·s
mass density ([2]; 323.15 K, w1 = 0.3002): 1012.96 ± 0.88 kg/m3
viscosity ([2]; 323.15 K, w1 = 0.3002): 1.505 ± 0.046 mPa·s
mass density ([2]; 333.15 K, w1 = 0.3002): 1006.92 ± 0.86 kg/m3
viscosity ([2]; 333.15 K, w1 = 0.3002): 1.207 ± 0.041 mPa·s
viscosity ([2]; 343.15 K, w1 = 0.3002): 0.8944 ± 0.035 mPa·s
